As usually defined, the IC50 is the midpoint of a concentration-inhibition curve.

Molecules are shown by their SMILES.

For the assay, the target named is Beta-3 Adrenergic Receptor (Homo sapiens (Human), UniProt P13945). Nature of the assay: Homogeneous Time-Resolved Fluorescence (HTRF) cAMP antagonist assay, IC50 determination. Format: cell-based. Particulars: CHO-K1 cells stably expressing recombinant receptor, isoproterenol at EC90. The procedure, abridged: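 In this functional readout, recombinant CHO-K1 cells received compound, then isoproterenol at its EC90. After 1 h at room temperature, cAMP levels were determined by HTRF using an on-plate standard curve, and IC50 values were fitted.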
Beta-3 Adrenergic Receptor, sequence (P13945 whole entry, species assumed): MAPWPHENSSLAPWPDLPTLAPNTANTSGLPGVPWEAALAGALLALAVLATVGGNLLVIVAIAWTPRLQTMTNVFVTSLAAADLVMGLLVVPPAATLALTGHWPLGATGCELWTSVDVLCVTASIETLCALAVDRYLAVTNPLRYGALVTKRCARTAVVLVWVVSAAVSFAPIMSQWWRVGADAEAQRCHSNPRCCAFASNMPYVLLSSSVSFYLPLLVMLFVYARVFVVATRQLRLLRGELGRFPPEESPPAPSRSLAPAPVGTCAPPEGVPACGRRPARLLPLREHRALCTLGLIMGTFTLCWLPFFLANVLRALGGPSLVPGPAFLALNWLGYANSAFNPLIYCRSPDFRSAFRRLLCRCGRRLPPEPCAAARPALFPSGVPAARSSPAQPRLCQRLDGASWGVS
As for `CNS(=O)(=O)c1cccc(OC[C@@H](O)CNC2COC3(CCN(S(=O)(=O)c4cccc(Cl)c4Cl)CC3)C2)c1` (stereo partly drawn) [Compound 142, 3-((2S)-3-(8-(2,3-dichlorophenylsulfonyl)-1-oxa-8-azaspiro[4.5]decan-3-ylamino)-2-hydroxypropoxy)-N-methylbenzenesulfonamide], the 50% inhibitory concentration (IC50) was 0.0168 µM.
To `CNS(=O)(=O)c1cccc(OC[C@@H](O)CN[C@H]2COC3(CCN(S(=O)(=O)c4ccc5[nH]c(C)nc5c4)CC3)C2)c1` [Compound 501, 3-((S)-2-hydroxy-3-((R)-8-(2-methyl-1H-benzo[d]imidazol-5-ylsulfonyl)-1-oxa-8-azaspiro[4.5]decan-3-ylamino)propoxy)-N-methylbenzenesulfonamide] belongs 0.0229 µM.
`CNS(=O)(=O)c1cccc(OC[C@@H](O)CN[C@H]2COC3(CCN(S(=O)(=O)c4cc5c(nc4N)OCCN5C)CC3)C2)c1` [Compound 455, 3-((S)-3-((R)-8-(6-amino-1-methyl-2,3-dihydro-1H-pyrido[2,3-b][1,4]oxazin-7-ylsulfonyl)-1-oxa-8-azaspiro[4.5]decan-3-ylamino)-2-hydroxypropoxy)-N-methylbenzenesulfonamide]: the IC50 came out at 0.0251 µM.
For the molecule `CCNS(=O)(=O)c1cccc(OC[C@@H](O)CN[C@H]2COC3(CCN(S(=O)(=O)c4cnc5c(c4)N(C)CCO5)CC3)C2)c1` [Compound 456, N-ethyl-3-((S)-2-hydroxy-3-((R)-8-(1-methyl-2,3-dihydro-1H-pyrido[2,3-b][1,4]oxazin-7-ylsulfonyl)-1-oxa-8-azaspiro[4.5]decan-3-ylamino)propoxy)benzenesulfonamide], the IC50 turned out to be 0.0164 µM.
To `CCNS(=O)(=O)c1cccc(OC[C@@H](O)CNC2COC3(CCN(S(=O)(=O)c4c(C)noc4C)CC3)C2)c1` (stereo partly drawn) [Compound 232, 3-((2S)-3-(8-(3,5-dimethylisoxazol-4-ylsulfonyl)-1-oxa-8-azaspiro[4.5]decan-3-ylamino)-2-hydroxypropoxy)-N-ethylbenzenesulfonamide] belongs 0.188 µM; to `CCC(C)c1ccc(S(=O)(=O)N2CCC3(CC2)CC(NC[C@H](O)COc2cccc(S(=O)(=O)NC)c2)CO3)cc1` (stereo partly drawn) [Compound 22, 3-((2S)-3-(8-(4-sec-butylphenylsulfonyl)-1-oxa-8-azaspiro[4.5]decan-3-ylamino)-2-hydroxypropoxy)-N-methylbenzenesulfonamide], 0.015 µM.
As to `CNS(=O)(=O)c1cccc(OC[C@@H](O)CNC2COC3(CCN(S(=O)(=O)c4cnc(O)nc4)CC3)C2)c1` (stereo partly drawn) [Compound 425, 3-((2S)-2-hydroxy-3-(8-(2-hydroxypyrimidin-5-ylsulfonyl)-1-oxa-8-azaspiro[4.5]decan-3-ylamino)propoxy)-N-methylbenzenesulfonamide], the IC50 was determined as 0.216 µM.
In the case of `CNS(=O)(=O)c1cccc(OC[C@@H](O)CNC2COC3(CCN(S(=O)(=O)c4cncc(-c5ccc(CN)nc5)c4)CC3)C2)c1` (stereo partly drawn) [Compound 388, 3-((2S)-3-(8-(6′-(aminomethyl)-3,3′-bipyridin-5-ylsulfonyl)-1-oxa-8-azaspiro[4.5]decan-3-ylamino)-2-hydroxypropoxy)-N-methylbenzenesulfonamide] it was 0.0794 µM; in that of `CNS(=O)(=O)c1cccc(OC[C@@H](O)CN[C@@H]2COC3(CCN(S(=O)(=O)c4cccc(-c5cc[nH]n5)c4)CC3)C2)c1` [Compound 295, 3-((S)-3-((S)-8-(3-(1H-pyrazol-3-yl)phenylsulfonyl)-1-oxa-8-azaspiro[4.5]decan-3-ylamino)-2-hydroxypropoxy)-N-methylbenzenesulfonamide], 0.00722 µM.
With `CNS(=O)(=O)c1cccc(OC[C@@H](O)CN[C@@H]2COC3(CCN(S(=O)(=O)c4cc(OC)cc(-c5ccc(CN)cc5)c4)CC3)C2)c1` [Compound 449, 3-((S)-3-((S)-8-(4′-(aminomethyl)-5-methoxybiphenyl-3-ylsulfonyl)-1-oxa-8-azaspiro[4.5]decan-3-ylamino)-2-hydroxypropoxy)-N-methylbenzenesulfonamide], the IC50 amounted to 0.0122 µM.
In the case of `COc1ccc(S(=O)(=O)N2CCC3(CC2)CC(NC[C@H](O)COc2cccc(S(=O)(=O)NCCCN(C)C)c2)CO3)cc1C` (stereo partly drawn) [Compound 308, N-(3-(dimethylamino)propyl)-3-((2S)-2-hydroxy-3-(8-(4-methoxy-3-methylphenylsulfonyl)-1-oxa-8-azaspiro[4.5]decan-3-ylamino)propoxy)benzenesulfonamide] it was 1.82 µM; in that of `CNS(=O)(=O)c1cccc(OC[C@@H](O)CN[C@H]2COC3(CCN(S(=O)(=O)c4ccc5[nH]c(=O)[nH]c5c4)CC3)C2)c1` [Compound 499, 3-((S)-2-hydroxy-3-((R)-8-(2-oxo-2,3-dihydro-1H-benzo[d]imidazol-5-ylsulfonyl)-1-oxa-8-azaspiro[4.5]decan-3-ylamino)propoxy)-N-methylbenzenesulfonamide], 0.073 µM.
As for `CNS(=O)(=O)c1cccc(OC[C@@H](O)CNC2COC3(CCN(S(=O)(=O)c4cc(Cl)ccc4C#N)CC3)C2)c1` (stereo partly drawn) [Compound 145, 3-((2S)-3-(8-(5-chloro-2-cyanophenylsulfonyl)-1-oxa-8-azaspiro[4.5]decan-3-ylamino)-2-hydroxypropoxy)-N-methylbenzenesulfonamide], the IC50 was 0.0215 µM.
In the case of `CNS(=O)(=O)c1cccc(OC[C@@H](O)CNC2COC3(CCN(S(=O)(=O)c4cccc(-c5ccc(NCCN6CCOCC6)nc5)c4)CC3)C2)c1` (stereo partly drawn) [Compound 371, 3-((2S)-2-hydroxy-3-(8-(3-(6-(2-morpholinoethylamino)pyridin-3-yl)phenylsulfonyl)-1-oxa-8-azaspiro[4.5]decan-3-ylamino)propoxy)-N-methylbenzenesulfonamide], the IC50 was 0.042 µM.
Turning to `CNS(=O)(=O)c1cccc(OC[C@@H](O)CNC2COC3(CCN(S(=O)(=O)c4cc(Br)ccc4Cl)CC3)C2)c1` (stereo partly drawn) [Compound 259, 3-((2S)-3-(8-(5-bromo-2-chlorophenylsulfonyl)-1-oxa-8-azaspiro[4.5]decan-3-ylamino)-2-hydroxypropoxy)-N-methylbenzenesulfonamide], the IC50 worked out at 0.0231 µM.
Turning to `CNS(=O)(=O)c1cccc(OC[C@@H](O)CNC2COC3(CCN(S(=O)(=O)c4ccc5ncccc5c4)CC3)C2)c1` (stereo partly drawn) [Compound 323, 3-((2S)-2-hydroxy-3-(8-(quinolin-6-ylsulfonyl)-1-oxa-8-azaspiro[4.5]decan-3-ylamino)propoxy)-N-methylbenzenesulfonamide], the IC50 amounted to 0.0248 µM.
In the case of `CNS(=O)(=O)c1cccc(OC[C@@H](O)CNC2COC3(CCN(S(=O)(=O)c4cccc(-c5cccnc5)c4)CC3)C2)c1` (stereo partly drawn) [Compound 88, 3-((2S)-2-hydroxy-3-(8-(3-(pyridin-3-yl)phenylsulfonyl)-1-oxa-8-azaspiro[4.5]decan-3-ylamino)propoxy)-N-methylbenzenesulfonamide] it was 0.00982 µM; in that of `CNS(=O)(=O)c1cccc(OC[C@@H](O)CNC2COC3(CCN(S(=O)(=O)c4cc(C)cc(Br)c4)CC3)C2)c1` (stereo partly drawn) [Compound 219, 3-((2S)-3-(8-(3-bromo-5-methylphenylsulfonyl)-1-oxa-8-azaspiro[4.5]decan-3-ylamino)-2-hydroxypropoxy)-N-methylbenzenesulfonamide], 0.0253 µM.
In the case of `CNS(=O)(=O)c1cccc(OC[C@@H](O)CN[C@H]2COC3(CCN(S(=O)(=O)c4cnc5c(c4)N(C)C[C@H](C)O5)CC3)C2)c1` [Compound 472, 3-((S)-3-((R)-8-((S)-1,3-dimethyl-2,3-dihydro-1H-pyrido[2,3-b][1,4]oxazin-7-ylsulfonyl)-1-oxa-8-azaspiro[4.5]decan-3-ylamino)-2-hydroxypropoxy)-N-methylbenzenesulfonamide] it was 0.0354 µM.
In the case of `CNS(=O)(=O)c1cccc(OC[C@@H](O)CNC2COC3(CCN(S(=O)(=O)c4cc(F)ccc4F)CC3)C2)c1` (stereo partly drawn) [Compound 205, 3-((2S)-3-(8-(2,5-difluorophenylsulfonyl)-1-oxa-8-azaspiro[4.5]decan-3-ylamino)-2-hydroxypropoxy)-N-methylbenzenesulfonamide], the IC50 is 0.014 µM.
As for `CCn1cc(S(=O)(=O)N2CCC3(CC2)C[C@@H](NC[C@H](O)COc2cccc(S(=O)(=O)NC)c2)CO3)c(=O)c2cc(F)ccc21` [Compound 536, 3-((S)-3-((R)-8-(1-ethyl-6-fluoro-4-oxo-1,4-dihydroquinolin-3-ylsulfonyl)-1-oxa-8-azaspiro[4.5]decan-3-ylamino)-2-hydroxypropoxy)-N-methylbenzenesulfonamide], the IC50 came out at 0.166 µM.
To `CNS(=O)(=O)c1cccc(OC[C@@H](O)CNC2COC3(CCN(S(=O)(=O)c4ccsc4)CC3)C2)c1` (stereo partly drawn) [Compound 196, 3-((2S)-2-hydroxy-3-(8-(thiophen-3-ylsulfonyl)-1-oxa-8-azaspiro[4.5]decan-3-ylamino)propoxy)-N-methylbenzenesulfonamide] belongs 0.0397 µM.
To `CNS(=O)(=O)c1cccc(OC[C@@H](O)CNC2COC3(CCN(S(=O)(=O)c4cccc(-c5ccc(CN)cc5)c4)CC3)C2)c1` (stereo partly drawn) [Compound 79, 3-((2S)-3-(8-(4′-(aminomethyl)biphenyl-3-ylsulfonyl)-1-oxa-8-azaspiro[4.5]decan-3-ylamino)-2-hydroxypropoxy)-N-methylbenzenesulfonamide] belongs 0.00715 µM.
Regarding `CCN(C(C)C)S(=O)(=O)c1cccc(OC[C@@H](O)CNC2COC3(CCN(S(=O)(=O)c4ccc5ccccc5c4)CC3)C2)c1` (stereo partly drawn) [Compound 7, N-ethyl-3-((2S)-2-hydroxy-3-(8-(naphthalen-2-ylsulfonyl)-1-oxa-8-azaspiro[4.5]decan-3-ylamino)propoxy)-N-isopropylbenzenesulfonamide], the IC50 was determined as 0.285 µM.
Turning to `CCC(C)(C)c1ccc(S(=O)(=O)N2CCC3(CC2)CC(NC[C@H](O)COc2cccc(S(=O)(=O)NC)c2)CO3)cc1` (stereo partly drawn) [Compound 120, 3-((2S)-2-hydroxy-3-(8-(4-tert-pentylphenylsulfonyl)-1-oxa-8-azaspiro[4.5]decan-3-ylamino)propoxy)-N-methylbenzenesulfonamide], the IC50 was 0.0364 µM.

These data come from patent US11987588B2, “Modulators of the beta-3 adrenergic receptor useful for the treatment or prevention of heart failure and disorders related thereto” (Arena Pharmaceuticals, Inc., priority 2017, dated 2024).
